Assays:
[1] = Plasma protein binding assay, human; type: in vitro ADME; conditions: read-out: Plasma Protein binding (% Bound) Plasma human (converted)
Method: Bound drug concentration in the brain was also investigated, and plasma protein binding assays were conducted. The following table (% bound) indicates results for Compound AA and Compound BB.

NR2C = NR2C (Homo sapiens, UniProt Q14957); test: Potentiation of [3H]MK-801 binding, wild-type NMDAR2C; design: species or system rat
Method: Assays were conducted as described by Moskal et al., “GLYX-13: a monoclonal antibody-derived peptide that acts as an N-methyl-D-aspartate receptor modulator,” Neuropharmacology, 49, 1077-87, 2005. The potentiation of [^3H]MK-801 binding (5 nM; 22.5 Ci/mmol) to well washed rat cortical membranes (200 μg) was measured under non-equilibrium conditions (15 min @ 25° C.) in the presence of increasing concentrations of Compound AA or Compound BB.
FIG. 2A depicts the potentiation of [^3H]MK-801 binding for wild-type NMDAR2 subtypes in the presence of Compound AA. FIG. 2B depicts the potentiation of [^3H]MK-801 binding for wild-type NMDAR2 subtypes in the presence of Compound BB. The following table depicts the results (P means potency and A means activity): […]

[2] = Microsomal stability, rat; type: in vitro ADME; conditions: rat microsomes
Method: (§1) Microsomal stability for Compound AA and Compound BB was investigated. The following table indicates the percent of Compound AA and Compound BB remaining after 60 minutes.

[3] = Microsomal stability, human; type: in vitro ADME; conditions: human microsomes
Method: as §1

SD rats = test: Novelty-induced hypophagia (NIH) test; type: in vivo, rat; conditions: 1-100 μg/kg PO, 1 h before test
From the text: This Example relates to the assessment of the anxiolytic effect of treatment in the stress-induced anxiety model, novelty induced hypophagia. This assay is also sensitive to the rapid acting antidepressants ketamine and GLYX-13 (Li et al., “mTOR-dependent synapse formation underlies the rapid antidepressant effects of NMDA antagonists,” Science 329:959-964, 2010; and Burgdorf et al., 2013). See also Bodnoff et al., “A comparison of the effects of diazepam versus several typical and atypical anti-depressant drugs in an animal model of anxiety,” Psychopharmacology, 97:277-279, 1989.
Testing was conducted as described by (Burgdorf et al., 2013). […] Animals were food deprived overnight before testing, and lab chow was placed in the center chamber of an open field (40×40×20 cm) for 10 min under dim red lighting. Between testing each animal, feces and urine were removed from the apparatus. After NIH testing, the latency to eat in the animal's home cage was determined as a control to ensure the effect on eating is specific to the novel environment. Animals were videotaped, and latency (sec) for the animal to take the first bite of food was manually scored offline.
A single point per dose group that was 2 or more standard deviations from the mean was considered an outlier and was excluded from the data analysis. […]

Sprague Dawley rats = test: Porsolt forced swim test; type: in vivo, rat; conditions: 1-100 μg/kg PO, 1 h post-dosing
Method: A non-clinical in vivo pharmacology study (Porsolt assay) was performed to measure antidepressant-like effects. A negative control (0.5% sodium carboxymethyl cellulose in 0.9% sterile saline vehicle) and a positive control (Compound C) were used to compare against Compound BB. The study allowed for the construction of a dose-response curve of the effects of each compound on the Porsolt forced swim test as assessed by the rats' response (reduced floating time) during a 5-minute swimming test.
Male 2-3 month old Sprague Dawley rats were used (Harlan, Indianapolis, Ind.). Rats were housed in Lucite cages with aspen wood chip bedding, maintained on a 12:12 light:dark cycle (lights on at 5 AM), and given ad libitum access to Purina lab chow (USA) and tap water throughout the study.
The Porsolt forced swim test adapted for use in rats was performed as described by Burgdorf et al., (The long-lasting antidepressant effects of rapastinel (GLYX-13) are associated with a metaplasticity process in the medial prefrontal cortex and hippocampus. Neuroscience 308:202-211, 2015). Animals were placed in a 46 cm tall×20 cm in diameter clear glass tube filled to 30 cm with tap water (23±1° C.) for 15 min on the first day (habituation) and 5 min on the subsequent test day. Animals were tested 1 h post-dosing with the compound BB, positive control (Compound C, 10 μg/kg), or vehicle (0.5% sodium carboxymethyl cellulose (Na-CMC) in 0.9% sterile saline). Water was changed after every other animal. Animals were videotaped, and floating time as defined as the minimal amount of effort required to keep the animals head above water was scored offline by a blinded experimenter with high inter-rater reliability (Pearson's r >0.9).
The maximally efficacious dose was defined as the lowest dose that was statistically different from vehicle but statistically equivalent (per Fisher's PLSD) to the higher doses. […]
Compound AA was assessed in a second set of animals at a single dose at 1 h post-administration and in a third set of animals at 24 h post-administration (FIG. 9B). […]

NR2C, sequence (Q14957 20-1233, species assumed, other chains not shown): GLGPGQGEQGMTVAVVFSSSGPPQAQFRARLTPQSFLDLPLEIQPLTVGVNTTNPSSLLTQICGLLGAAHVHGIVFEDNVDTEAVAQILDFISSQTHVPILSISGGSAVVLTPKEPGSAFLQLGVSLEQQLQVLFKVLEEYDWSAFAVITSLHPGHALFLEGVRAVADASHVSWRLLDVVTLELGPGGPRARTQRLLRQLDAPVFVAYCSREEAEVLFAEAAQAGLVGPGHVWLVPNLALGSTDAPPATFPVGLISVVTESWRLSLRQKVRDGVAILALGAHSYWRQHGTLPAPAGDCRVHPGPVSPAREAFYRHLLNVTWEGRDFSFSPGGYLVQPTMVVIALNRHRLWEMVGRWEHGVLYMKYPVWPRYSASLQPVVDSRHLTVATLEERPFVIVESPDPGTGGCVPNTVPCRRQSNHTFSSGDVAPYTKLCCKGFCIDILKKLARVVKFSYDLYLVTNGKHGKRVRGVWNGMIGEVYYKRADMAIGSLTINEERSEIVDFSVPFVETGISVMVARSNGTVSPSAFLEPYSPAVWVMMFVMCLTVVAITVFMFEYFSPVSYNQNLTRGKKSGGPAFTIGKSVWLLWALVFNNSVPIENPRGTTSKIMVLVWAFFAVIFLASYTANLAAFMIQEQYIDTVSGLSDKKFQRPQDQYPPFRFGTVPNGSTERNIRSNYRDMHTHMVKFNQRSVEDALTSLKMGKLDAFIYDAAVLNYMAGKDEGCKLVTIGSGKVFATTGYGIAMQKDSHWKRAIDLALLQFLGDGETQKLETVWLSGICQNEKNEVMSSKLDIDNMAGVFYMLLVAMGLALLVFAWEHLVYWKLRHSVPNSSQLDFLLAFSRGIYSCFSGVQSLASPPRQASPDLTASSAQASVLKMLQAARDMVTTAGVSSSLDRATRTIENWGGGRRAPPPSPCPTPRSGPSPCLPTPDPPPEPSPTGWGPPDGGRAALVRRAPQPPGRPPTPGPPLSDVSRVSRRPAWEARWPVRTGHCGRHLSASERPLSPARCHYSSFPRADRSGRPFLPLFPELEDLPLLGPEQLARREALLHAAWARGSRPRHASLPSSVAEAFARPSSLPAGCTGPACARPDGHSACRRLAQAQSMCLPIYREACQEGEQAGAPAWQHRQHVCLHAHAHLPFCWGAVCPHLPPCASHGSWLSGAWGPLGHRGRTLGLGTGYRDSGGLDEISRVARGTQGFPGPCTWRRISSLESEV

For `C[C@@H](O)[C@@H](C(N)=O)N1C[C@@]2(CCCN2S(C)(=O)=O)C1=O` [Compound BB, (2S,3R)-3-hydroxy-2-((S)-5-(methylsulfonyl)-1-oxo-2,5-diazaspiro[3,4]octan-2-yl)butanamide], the fraction unbound [1] was 0.789, the “NR2C A (%) (activity)” value (NR2C; potentiation of [3H]MK-801 binding) was 0% and the “NMDAR2C BINDING PROFILE % 1 mM Glycine” value (NR2C; relative to 1 mM glycine) was 0%. The “binding to NR2C (in words)” value (NR2C; statement in description) was “substantially no binding”, the “NMDAR2C BINDING PROFILE Conclusion” value (NR2C; wild-type NMDAR2C) was “WT2C no” and the “Microsomal Stability (% remaining at 60 min) Rat” value [2] was 96%. The “Microsomal Stability (% remaining at 60 min) Human” value [3] was 92%, the “latency to eat in the novelty-induced hypophagia (NIH) test” value (SD rats) was “produces an anxiolytic effect” and the “floating time in the Porsolt test” value (Sprague Dawley rats) was “produces an antidepressant-like effect as measured by decreased floating time”.

From US10195179B2, “Spiro-lactam NMDA receptor modulators and uses thereof” (Aptinyx Inc., priority 2016, dated 2019)
